Reference: PMC3601441 (Journal of medicinal chemistry, 2011)
“And” between values parts separate entries of the source, which are not always exact repeats. Equal entries are not always repeated. Structures can show the parent of a compound that is named as a salt. Where two headings read alike, the source gives them in different places.

What was measured:
[1] = target: M. tuberculosis DXR (MtDXR) (Mycobacterium tuberculosis, UniProt P9WNS1); type: biochemical; conditions: for times less active against MtDXR than 1 and 2: compared with parent compounds 1 and 2; for Ki: read-out: MtDXR Ki
Sequence of M. tuberculosis DXR (MtDXR) (P9WNS1 whole entry, looked up): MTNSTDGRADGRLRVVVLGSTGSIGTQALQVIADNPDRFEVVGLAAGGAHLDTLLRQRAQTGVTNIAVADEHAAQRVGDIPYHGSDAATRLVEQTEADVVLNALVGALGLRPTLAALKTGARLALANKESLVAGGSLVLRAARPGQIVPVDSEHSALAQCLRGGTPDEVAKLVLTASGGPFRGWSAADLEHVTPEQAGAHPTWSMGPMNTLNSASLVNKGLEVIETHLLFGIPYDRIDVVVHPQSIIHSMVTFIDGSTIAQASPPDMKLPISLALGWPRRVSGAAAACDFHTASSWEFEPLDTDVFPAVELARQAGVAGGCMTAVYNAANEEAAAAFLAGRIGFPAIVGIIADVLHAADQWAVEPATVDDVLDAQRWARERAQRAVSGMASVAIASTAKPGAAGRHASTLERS

[2] = system: P. falciparum; conditions: read-out: EC50 against P. falciparum; ref 8j; cited from earlier work
[3] = system: MtDXR; conditions: read-out: MtDXR IC50; using […] of Mn2+; cited from earlier work
[4] = background statement, no reference given; cited from earlier work
[5] = system: DXR; conditions: read-out: DXR IC50; ref 9b; cited from earlier work
[6] = target: E. coli DXR (EcDXR) (Escherichia coli, UniProt P45568); test: biochemical; type: biochemical
Sequence of E. coli DXR (EcDXR) (P45568 whole entry): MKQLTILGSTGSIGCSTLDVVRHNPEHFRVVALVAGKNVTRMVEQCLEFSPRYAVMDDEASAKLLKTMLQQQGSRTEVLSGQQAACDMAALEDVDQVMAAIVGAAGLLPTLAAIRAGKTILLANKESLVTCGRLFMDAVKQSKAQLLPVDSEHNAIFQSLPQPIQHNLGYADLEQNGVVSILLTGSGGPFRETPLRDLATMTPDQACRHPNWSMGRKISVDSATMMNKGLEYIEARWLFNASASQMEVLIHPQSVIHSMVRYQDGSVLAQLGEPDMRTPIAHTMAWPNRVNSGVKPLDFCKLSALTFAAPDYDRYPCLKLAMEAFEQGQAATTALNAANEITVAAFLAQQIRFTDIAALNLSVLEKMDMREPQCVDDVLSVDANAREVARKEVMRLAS

[7] = system: MtDXR; conditions: read-out: Km of substrate for MtDXR; ref 2d; cited from earlier work
[8] = system: EcDXR; conditions: read-out: Km of substrate for EcDXR; cited from earlier work

**Q.** With `O=CN(O)CCCP(=O)(O)O` [Compound 1, Fosmidomycin] as the molecule, how does the “times weaker binding / less active against MtDXR than EcDXR” value (“times weaker binding / less active” for short) ([1]; Ki MtDXR vs Ki EcDXR) read?
**A.** Its value is ~ 5 × and 5 ×.

**Q.** And the EC50 [2]?
**A.** Its EC50 is 1.1 µM.

**Q.** What about the IC50 [3] of the same molecule?
**A.** Its IC50 is 0.08 µM.

**Q.** What about the half-life in plasma [4] of the same molecule?
**A.** Its half-life in plasma is ~ 1 h.

**Q.** What about the oral availability [4] of the same molecule?
**A.** The oral availability was “poor oral availability”.

**Q.** For `CC(=O)N(O)CCCP(=O)(O)O` [Compound 2, FR900098, reference compound], which “times weaker binding / less active” value [1] is on record?
**A.** Its value is ~ 6 ×.

**Q.** Which “affinity loss to MtDXR compared to EcDXR” value ([1]; Ki MtDXR vs Ki EcDXR) does the source give for `O=CN(O)CCC(c1ccc(Cl)c(Cl)c1)P(=O)(O)O` (stereo not shown) [Compound 3, reference compound] here?
**A.** Its value is 21 fold.

**Q.** What about the “times less active against MtDXR than 1 and 2” value [1] of the same molecule?
**A.** The value was ~ 10 ×.

**Q.** What about the EC50 [2] of the same molecule?
**A.** Its EC50 is 0.09 µM.

**Q.** What does the source list for `CC(=O)N(O)CCC(c1ccc(Cl)c(Cl)c1)P(=O)(O)O` (stereo not shown) [Compound 4, reference compound]?
**A.** affinity loss to MtDXR compared to EcDXR ([1]; Ki MtDXR vs Ki EcDXR): 42 fold; times less active against MtDXR than 1 and 2 [1]: ~ 10 × and 10 ×; EC50 [2]: 0.25 µM

**Q.** For `O=P(O)(O)C(Nc1ccc(Cl)cn1)P(=O)(O)O` [Compound 6, reference compound], which “times weaker binding / less active” value [1] is on record?
**A.** The value was over 5 ×.

**Q.** What about the Ki [1] of the same molecule?
**A.** Its Ki is over 100 µM.

**Q.** Which “times weaker binding / less active” value ([1]; Ki MtDXR vs Ki EcDXR) does the source give for `O=c1ccc(-c2ccccc2)cn1O` [Compound 7, reference compound] here?
**A.** Its value is 31 ×.

**Q.** And the IC50 [5]?
**A.** Its IC50 is 1.4 µM.

**Q.** What does the source list for `O=P(O)(O)Cc1ccc(-c2ccccc2)cn1` [Compound 9, 5-phenylpyridin-2-ylmethylphosphonic acid]?
**A.** times as potent as 8 against EcDXR [6]: 5 ×; affinity loss to MtDXR compared to EcDXR ([1]; Ki MtDXR vs Ki EcDXR): 7 fold

**Q.** For `O=P(O)(O)c1ccccn1` [Compound 11, Pyridin-2-ylphosphonic acid disodium salt], which Ki [6] is on record?
**A.** The Ki was over 49.7 µM.

**Q.** And the Ki ([6]; read-out: EcDXR Ki)?
**A.** Its Ki is over 100 µM.

**Q.** And the “inhibitory activity against EcDXR (in words)” value ([6]; up to 100 μM)?
**A.** Its value is “essentially no activity”.

**Q.** And the Ki [1]?
**A.** Its Ki is over 100 µM.

**Q.** Which results are given for `O=P(O)(O)CCc1ccccn1` [Compound 12, 2-(Pyridin-2-yl)ethylphosphonic acid disodium salt]?
**A.** times less potent than 8 against EcDXR ([6]; Ki ratio to compound 8): ~ 8 ×; Ki [1]: > 100 µM

**Q.** What does the source list for `O=P(O)(O)CCCc1ccccn1` [Compound 13, 3-(Pyridin-2-yl)propylphosphonic acid disodium salt]?
**A.** times less potent than 8 against EcDXR ([6]; Ki ratio to compound 8): ~4 ×; Ki [1]: > 100 µM

**Q.** Which Ki [1] does the source give for `O=P(O)(O)Cc1cccnc1` [Compound 14] here?
**A.** The Ki was over 100 µM.

**Q.** For `O=P(O)(O)Cc1cnccn1` [Compound 16, Pyrazin-2-ylmethylphosphonic acid disodium salt], which Ki [1] is on record?
**A.** Its Ki is over 100 µM.

**Q.** Which results are given for `O=P(O)(O)c1ccccc1` [Compound 18, Phenylphosphonic acid disodium salt]?
**A.** Ki [6]: > 49.7 µM; Ki ([6]; read-out: EcDXR Ki): > 100 µM; Ki [1]: > 100 µM

**Q.** For `O=P(O)(O)Cc1ccccc1` [Compound 19, Benzylphosphonic acid disodium salt], which Ki [6] is on record?
**A.** The Ki was over 49.7 µM.

**Q.** What about the Ki ([6]; read-out: EcDXR Ki) of the same molecule?
**A.** The Ki was over 100 µM.

**Q.** And the Ki [1]?
**A.** Its Ki is over 100 µM.

**Q.** With `O=P(O)(O)CCc1ccccc1` [Compound 20, 2-Phenylethylphosphonic acid disodium salt] as the molecule, how does the Ki [6] read?
**A.** Its Ki is over 49.7 µM.

**Q.** What about the Ki ([6]; read-out: EcDXR Ki) of the same molecule?
**A.** The Ki was over 100 µM.

**Q.** What about the Ki [1] of the same molecule?
**A.** Its Ki is over 100 µM.

**Q.** For `O=P(O)(O)Cc1ccc(Cl)c(Cl)c1` [Compound 21], which Ki [6] is on record?
**A.** The Ki was over 49.7 µM.

**Q.** What about the Ki ([6]; read-out: EcDXR Ki) of the same molecule?
**A.** The Ki was over 100 µM.

**Q.** And the “inhibitory activity against EcDXR (in words)” value ([6]; up to 100 μM)?
**A.** Its value is “essentially no activity”.

**Q.** What about the “inhibitory activity against MtDXR (in words)” value [1] of the same molecule?
**A.** Its value is “essentially no activity”.

**Q.** What about the Ki [1] of the same molecule?
**A.** The Ki was over 100 µM.

**Q.** With `O=P(O)(O)CCc1ccccc1O` [Compound 22, 2-(2-Hydroxyphenyl)ethylphosphonic acid disodium salt] as the molecule, how does the Ki [6] read?
**A.** The Ki was over 49.7 µM.

**Q.** And the Ki ([6]; read-out: EcDXR Ki)?
**A.** The Ki was over 100 µM.

**Q.** What about the “inhibitory activity against EcDXR (in words)” value ([6]; up to 100 μM) of the same molecule?
**A.** The value was “no inhibitory activity”.

**Q.** And the Ki [1]?
**A.** Its Ki is over 100 µM.

**Q.** What does the source list for `O=P(O)(O)Cc1cccc(O)c1O` [Compound 23]?
**A.** Ki [6]: > 49.7 µM; Ki ([6]; read-out: EcDXR Ki): > 100 µM; inhibitory activity against EcDXR (in words) ([6]; up to 100 μM): no inhibitory activity; Ki [1]: > 100 µM

**Q.** With `O=c1ccc(CP(=O)(O)O)cn1O` [Compound 24, 5-(1-Hydroxy-pyridin-2-one)methylphosphonic acid disodium salt] as the molecule, how does the Ki [6] read?
**A.** The Ki was over 49.7 µM.

**Q.** What about the “inhibitory activity against EcDXR (in words)” value ([6]; up to 100 μM) of the same molecule?
**A.** Its value is “essentially inactive”.

**Q.** Which results are given for `O=c1cccc(CCP(=O)(O)O)[nH]1` [Compound 25, 2-(Pyridin-2-one-6-yl)ethylphosphonic acid disodium salt]?
**A.** Ki [6]: > 49.7 µM; inhibitory activity against EcDXR (in words) ([6]; up to 100 μM): essentially inactive

**Q.** For `O=P(O)(O)Cc1cc(-c2ccc(F)cc2)ccn1` [Compound 28, 4-(4-Fluorophenyl)pyridin-2-ylmethylphosphonic acid disodium salt], which Ki [1] is on record?
**A.** Its Ki is over 100 µM.

**Q.** Which “times as potent as 8 against EcDXR” value ([6]; Ki ratio to compound 8) does the source give for `O=P(O)(O)Cc1ccc(O)cn1` [Compound 30, (5-Hydroxylpyridin-2-yl)methylphosphonic acid disodium salt] here?
**A.** Its value is ~ 3 ×.

**Q.** With `O=P(O)(O)Cc1ccc(OCc2ccccc2)cn1` [Compound 31, (5-Benzyloxypyridin-2-yl)methylphosphonic acid disodium salt] as the molecule, how does the Ki [6] read?
**A.** Its Ki is over 49.7 µM.

**Q.** What about the “inhibitory activity against EcDXR (in words)” value [6] of the same molecule?
**A.** The value was “inactive”.

**Q.** What about the Ki ([6]; read-out: EcDXR Ki) of the same molecule?
**A.** The Ki was over 100 µM.

**Q.** What about the Ki [1] of the same molecule?
**A.** The Ki was over 100 µM.

**Q.** For `O=P(O)(O)Cc1cccc(-c2ccccc2)n1` [Compound 33, (6-Phenylpyridin-2-yl)methylphosphonic acid disodium salt], which Ki [1] is on record?
**A.** Its Ki is over 100 µM.

**Q.** With `O=P(O)(O)Cc1ccc(-c2ccc(Cl)cc2)cn1` [Compound 35, 5-(4-Chlorophenyl)pyridin-2-ylmethylphosphonic acid disodium salt] as the molecule, how does the Ki [1] read?
**A.** Its Ki is over 100 µM.

**Q.** Which Ki [1] does the source give for `Cc1ccc(-c2ccc(CP(=O)(O)O)nc2)cc1` [Compound 36, 5-(4-Methylphenyl)pyridin-2-ylmethylphosphonic acid disodium salt] here?
**A.** Its Ki is over 100 µM.

**Q.** For `COc1cccc(-c2ccc(CP(=O)(O)O)nc2)c1` [Compound 37, 5-(3-Methoxyphenyl)pyridin-2-ylmethylphosphonic acid disodium salt], which Ki [1] is on record?
**A.** The Ki was over 100 µM.

**Q.** With `O=C(O)c1ccccn1` [Compound 39] as the molecule, how does the Ki [6] read?
**A.** Its Ki is over 49.7 µM.

**Q.** And the Ki ([6]; read-out: EcDXR Ki)?
**A.** Its Ki is over 100 µM.

**Q.** And the Ki [1]?
**A.** Its Ki is over 100 µM.

**Q.** For `O=C(O)Cc1ccccn1` [Compound 40], which Ki [6] is on record?
**A.** The Ki was over 49.7 µM.

**Q.** And the Ki ([6]; read-out: EcDXR Ki)?
**A.** Its Ki is over 100 µM.

**Q.** And the Ki [1]?
**A.** Its Ki is over 100 µM.

**Q.** With `O=C(O)Cc1cccnc1` [Compound 41] as the molecule, how does the Ki [6] read?
**A.** The Ki was over 49.7 µM.

**Q.** And the Ki ([6]; read-out: EcDXR Ki)?
**A.** The Ki was over 100 µM.

**Q.** And the Ki [1]?
**A.** The Ki was over 100 µM.

**Q.** Which Ki [6] does the source give for `O=C(O)Cc1ccncc1` [Compound 42] here?
**A.** Its Ki is over 49.7 µM.

**Q.** And the Ki ([6]; read-out: EcDXR Ki)?
**A.** The Ki was over 100 µM.

**Q.** And the Ki [1]?
**A.** The Ki was over 100 µM.

**Q.** Which Ki [6] does the source give for `O=C(NO)c1ccccn1` [Compound 43, N-hydroxy-pyridine-2-carboxamide] here?
**A.** The Ki was over 49.7 µM.

**Q.** Which Ki [6] does the source give for `O=C(Cc1ccccn1)NO` [Compound 44, N-hydroxy-(pyridin-2-yl)acetamide] here?
**A.** The Ki was over 49.7 µM.

**Q.** Which results are given for `O=C(O)c1ccc(-c2ccccc2)cn1` [Compound 45, 5-Phenylpyridine-2-carboxylic acid]?
**A.** Ki [6]: > 49.7 µM; Ki ([6]; read-out: EcDXR Ki): > 100 µM; Ki [1]: > 100 µM

**Q.** For `O=C(O)Cc1ccc(-c2ccccc2)cn1` [Compound 46, (5-Phenylpyridin-2-yl)acetic acid], which Ki [6] is on record?
**A.** The Ki was over 49.7 µM.

**Q.** For `O=C(Cc1ccc(-c2ccccc2)cn1)NO` [Compound 47, N-hydroxy-(5-phenylpyridin-2-yl)acetamide], which Ki [6] is on record?
**A.** The Ki was over 49.7 µM.

**Q.** Which Ki [6] does the source give for `O=S(=O)(O)Cc1ccc(-c2ccccc2)cn1` [Compound 48, 5-Phenylpyridin-2-ylmethanesulfonic acid sodium salt] here?
**A.** Its Ki is over 49.7 µM.

**Q.** And the Ki ([6]; read-out: EcDXR Ki)?
**A.** Its Ki is over 100 µM.

**Q.** What about the Ki [1] of the same molecule?
**A.** Its Ki is over 100 µM.

**Q.** For `CC(=O)[C@@H](O)[C@H](O)COP(=O)(O)O` [DXP, 1-deoxy-D-xylulose-5-phosphate], which Km [7] is on record?
**A.** The Km was 47.1 µM.

**Q.** What about the Km [8] of the same molecule?
**A.** The Km was 99 µM.
